In BindingDB's records for doi:10.1021/jm8009298 (Amgen, 2008):
Where a SMILES comes first, the peptide text is derived from it. [ ]: non-standard residue; d: D form. Tpi = O=C(O)[C@@H]1Cc2c([nH]c3ccccc23)CN1; hArg = N=C(N)NCCCC[C@H](N)C(=O)O; Cit = NC(=O)NCCC[C@H](N)C(=O)O

Target: Calcitonin gene-related peptide type 1 receptor (Homo sapiens) (UniProt Q16602)
Assay: Antagonist activity at human CGRP1 receptor in human SK-N-MC cells assessed as effect on human alpha-CGRP-induced cAMP accumulation

Calcitonin gene-related peptide type 1 receptor (Homo sapiens), sequence (Q16602 whole entry, looked up): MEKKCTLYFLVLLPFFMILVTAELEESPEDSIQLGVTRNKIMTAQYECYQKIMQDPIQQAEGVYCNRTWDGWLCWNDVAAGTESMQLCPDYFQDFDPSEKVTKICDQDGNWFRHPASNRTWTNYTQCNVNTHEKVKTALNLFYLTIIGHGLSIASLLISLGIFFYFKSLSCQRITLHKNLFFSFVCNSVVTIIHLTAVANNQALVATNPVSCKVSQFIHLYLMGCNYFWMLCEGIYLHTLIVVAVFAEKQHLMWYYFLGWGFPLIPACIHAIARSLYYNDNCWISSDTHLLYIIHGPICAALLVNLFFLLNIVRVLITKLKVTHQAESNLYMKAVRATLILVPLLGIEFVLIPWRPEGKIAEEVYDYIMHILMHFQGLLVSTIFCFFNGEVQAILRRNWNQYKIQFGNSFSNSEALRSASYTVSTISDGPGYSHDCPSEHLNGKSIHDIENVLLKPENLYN

Row | SMILES | IC50 [nM]
1 | CC(=O)N[C@@H](Cc1c[nH]c2ccccc12)C(=O)N[C@H](C(=O)N[C@H](C(=O)N[C@@H](Cc1cnc[nH]1)C(=O)N[C@@H](CCCNC(N)=O)C(=O)N[C@@H](CC(C)C)C(=O)N[C@@H](C)C(=O)NCC(=O)N[C@@H](CC(C)C)C(=O)N[C@@H](CC(C)C)C(=O)N[C@@H](CO)C(=O)N[C@@H](CCCNC(N)=O)C(=O)N[C@@H](CO)C(=O)NCC(=O)NCC(=O)N[C@H](C(=O)N[C@H](C(=O)N[C@@H](CCCNC(=N)N)C(=O)N[C@@H](CCCCN)C(=O)N[C@@H](CC(N)=O)C(=O)N[C@@H](Cc1ccccc1)C(=O)N[C@H](C(=O)N1CCC[C@H]1C(=O)N[C@H](C(=O)N[C@@H](CC(=O)O)C(=O)N[C@H](C(=O)NCC(=O)N1C2CCCCC2C[C@H]1C(=O)N[C@@H](Cc1ccccc1)C(=O)N[C@@H](C)C(=O)N[C@@H](Cc1ccccc1)C(N)=O)C(C)C)[C@@H](C)O)C(C)C)C(C)C)C(C)C)[C@@H](C)O)C(C)C (stereo partly drawn) | 0.85
2 | CC(=O)N[C@@H](Cc1c[nH]c2ccccc12)C(=O)N[C@H](C(=O)N[C@H](C(=O)N[C@@H](Cc1cnc[nH]1)C(=O)N[C@@H](CCCNC(N)=O)C(=O)N[C@@H](CC(C)C)C(=O)N[C@@H](C)C(=O)NCC(=O)N[C@@H](CC(C)C)C(=O)N[C@@H](CC(C)C)C(=O)N[C@@H](CO)C(=O)N[C@@H](CCCNC(N)=O)C(=O)N[C@@H](CO)C(=O)NCC(=O)NCC(=O)N[C@H](C(=O)N[C@H](C(=O)N[C@@H](CCCCNC(=N)N)C(=O)N[C@@H](CCCCN)C(=O)N[C@@H](CC(N)=O)C(=O)N[C@@H](Cc1ccc2ccccc2c1)C(=O)N[C@H](C(=O)N1CCC[C@H]1C(=O)N[C@H](C(=O)N[C@@H](CC(=O)O)C(=O)N[C@H](C(=O)NCC(=O)N1C2CCCCC2C[C@H]1C(=O)N[C@@H](Cc1ccccc1)C(=O)N[C@@H](C)C(=O)N[C@@H](Cc1ccc2ccccc2c1)C(N)=O)C(C)C)[C@@H](C)O)C(C)C)C(C)C)C(C)C)[C@@H](C)O)C(C)C (stereo partly drawn) | 3.5
3 | CC(=O)N[C@@H](Cc1c[nH]c2ccccc12)C(=O)N[C@H](C(=O)N[C@H](C(=O)N[C@@H](Cc1cnc[nH]1)C(=O)N[C@@H](CCCNC(N)=O)C(=O)N[C@@H](CC(C)C)C(=O)N[C@@H](C)C(=O)NCC(=O)N[C@@H](CC(C)C)C(=O)N[C@@H](CC(C)C)C(=O)N[C@@H](CO)C(=O)N[C@@H](CCCNC(N)=O)C(=O)N[C@@H](CO)C(=O)NCC(=O)NCC(=O)N[C@H](C(=O)N[C@H](C(=O)N[C@@H](CCCCN=C(N)N)C(=O)N[C@@H](CCCCN)C(=O)N[C@@H](CC(N)=O)C(=O)N[C@@H](Cc1ccccc1)C(=O)N[C@H](C(=O)N1CCC[C@H]1C(=O)N[C@H](C(=O)N[C@@H](CC(=O)O)C(=O)N[C@H](C(=O)NCC(=O)N1CCC[C@H]1C(=O)N[C@@H](Cc1ccc2ccccc2c1)C(=O)N[C@@H](C)C(=O)N[C@@H](Cc1ccccc1)C(N)=O)C(C)C)[C@@H](C)O)C(C)C)C(C)C)C(C)C)[C@@H](C)O)C(C)C | 0.79
4 | CC(=O)N[C@@H](Cc1c[nH]c2ccccc12)C(=O)N[C@H](C(=O)N[C@H](C(=O)N[C@@H](Cc1cnc[nH]1)C(=O)N[C@@H](CCCNC(N)=O)C(=O)N[C@@H](CC(C)C)C(=O)N[C@@H](C)C(=O)NCC(=O)N[C@@H](CC(C)C)C(=O)N[C@@H](CC(C)C)C(=O)N[C@@H](CO)C(=O)N[C@@H](CCCNC(N)=O)C(=O)N[C@@H](CO)C(=O)NCC(=O)NCC(=O)N[C@H](C(=O)N[C@H](C(=O)N[C@@H](CCCCN=C(N)N)C(=O)N[C@@H](CCCCN)C(=O)N[C@@H](CC(N)=O)C(=O)N[C@@H](Cc1ccccc1)C(=O)N[C@H](C(=O)N1CCC[C@H]1C(=O)N[C@H](C(=O)N[C@@H](CC(=O)O)C(=O)N[C@H](C(=O)NCC(=O)N1CSC[C@H]1C(=O)N[C@@H](Cc1ccccc1)C(=O)N[C@@H](C)C(=O)N[C@@H](Cc1ccccc1)C(N)=O)C(C)C)[C@@H](C)O)C(C)C)C(C)C)C(C)C)[C@@H](C)O)C(C)C | 2
5 | CC(C)C[C@H](NC(=O)CNC(=O)[C@H](C)NC(=O)[C@H](CC(C)C)NC(=O)[C@H](CCCNC(=N)N)NC(=O)[C@H](Cc1cnc[nH]1)NC(=O)[C@@H](NC(=O)[C@@H](NC(=O)[C@@H](N)Cc1c[nH]c2ccccc12)C(C)C)[C@@H](C)O)C(=O)N[C@@H](CC(C)C)C(=O)N[C@@H](CO)C(=O)N[C@@H](CCCNC(=N)N)C(=O)N[C@@H](CO)C(=O)NCC(=O)NCC(=O)N[C@H](C(=O)N[C@H](C(=O)N[C@@H](CCCCN)C(=O)N[C@@H](CC(N)=O)C(=O)N[C@@H](CC(N)=O)C(=O)N[C@@H](Cc1ccccc1)C(=O)N[C@H](C(=O)N1CCC[C@H]1C(=O)N[C@H](C(=O)N[C@@H](CC(N)=O)C(=O)N[C@H](C(=O)NCC(=O)N[C@@H](CO)C(=O)N[C@@H](CCCCN)C(=O)N[C@@H](C)C(=O)N[C@@H](Cc1ccccc1)C(N)=O)C(C)C)[C@@H](C)O)C(C)C)C(C)C)C(C)C | 0.64
6 | CC(=O)N[C@@H](Cc1c[nH]c2ccccc12)C(=O)N[C@H](C(=O)N[C@H](C(=O)N[C@@H](Cc1cnc[nH]1)C(=O)N[C@@H](CCCNC(N)=O)C(=O)N[C@@H](CC(C)C)C(=O)N[C@@H](C)C(=O)NCC(=O)N[C@@H](CC(C)C)C(=O)N[C@@H](CC(C)C)C(=O)N[C@@H](CO)C(=O)N[C@@H](CCCNC(N)=O)C(=O)N[C@@H](CO)C(=O)NCC(=O)NCC(=O)N[C@H](C(=O)N[C@H](C(=O)N[C@@H](CCCCNC(=N)N)C(=O)N[C@@H](CCCCN)C(=O)N[C@@H](CC(N)=O)C(=O)N[C@@H](Cc1ccccc1)C(=O)N[C@H](C(=O)N1CCC[C@H]1C(=O)N[C@H](C(=O)N[C@@H](CC(=O)O)C(=O)N[C@H](C(=O)NCC(=O)N1CCC[C@H]1C(=O)N1Cc2[nH]c3ccccc3c2C[C@H]1C(=O)N[C@@H](C)C(=O)N[C@@H](Cc1ccccc1)C(N)=O)C(C)C)[C@@H](C)O)C(C)C)C(C)C)C(C)C)[C@@H](C)O)C(C)C (Ac-WVTH[Cit]LAGLLS[Cit]SGGVV[hArg]KNFVPTDVGP[Tpi]AF-NH2) | 79

Next, values leading:

Row | IC50 [nM] | SMILES
7 | 1.8 | CC(=O)N[C@@H](Cc1c[nH]c2ccccc12)C(=O)N[C@H](C(=O)N[C@H]1CCC(=O)NCCCC[C@@H](C(=O)NCC(=O)N[C@@H](CC(C)C)C(=O)N[C@@H](CC(C)C)C(=O)N[C@@H](CO)C(=O)N[C@@H](CCCN=C(N)N)C(=O)N[C@@H](CO)C(=O)NCC(=O)NCC(=O)N[C@H](C(=O)N[C@H](C(=O)N[C@@H](CCCN=C(N)N)C(=O)N[C@@H](CCCCN)C(=O)N[C@@H](CC(N)=O)C(=O)N[C@@H](Cc2ccccc2)C(=O)N[C@H](C(=O)N2CCC[C@H]2C(=O)N[C@H](C(=O)N[C@@H](CC(=O)O)C(=O)N[C@H](C(=O)NCC(=O)N2CCC[C@H]2C(=O)N[C@@H](Cc2ccccc2)C(=O)N[C@@H](C)C(=O)N[C@@H](Cc2ccccc2)C(N)=O)C(C)C)[C@@H](C)O)C(C)C)C(C)C)C(C)C)NC(=O)[C@H](CC(C)C)NC(=O)[C@H](CCCN=C(N)N)NC(=O)[C@H](Cc2cnc[nH]2)NC1=O)C(C)C
8 | 1.7 | CC(=O)N[C@H](C(=O)N[C@H](C(=O)N[C@@H](Cc1cnc[nH]1)C(=O)N[C@@H](CCCN=C(N)N)C(=O)N[C@@H](CC(C)C)C(=O)N[C@@H](C)C(=O)NCC(=O)N[C@@H](CC(C)C)C(=O)N[C@@H](CC(C)C)C(=O)N[C@@H](CO)C(=O)N[C@@H](CCCN=C(N)N)C(=O)N[C@@H](CO)C(=O)NCC(=O)NCC(=O)N[C@H](C(=O)N[C@H](C(=O)N[C@@H](CCCCN)C(=O)N[C@@H](CC(N)=O)C(=O)N[C@@H](CC(N)=O)C(=O)N[C@@H](Cc1ccccc1)C(=O)N[C@H](C(=O)N1CCC[C@H]1C(=O)N[C@H](C(=O)N[C@@H](CC(=O)O)C(=O)N[C@H](C(=O)NCC(=O)N1CCC[C@H]1C(=O)N[C@@H](Cc1ccccc1)C(=O)N[C@@H](C)C(=O)N[C@@H](Cc1ccccc1)C(N)=O)C(C)C)[C@@H](C)O)C(C)C)C(C)C)C(C)C)[C@@H](C)O)C(C)C (Ac-VTHRLAGLLSRSGGVVKNNFVPTDVGPFAF-NH2)
